Here are results for 12 molecules from US8835615B2, “2′-fluorine-4′-substituted-nucleoside analogues, preparation methods and uses thereof” (priority 2007, dated 2014).

Molecules are shown by their SMILES. In brackets after ≈: the same amount, converted by molar mass. Where two headings read alike, the source gives them in different places. Where only a bound is given, the exact number is not on record here.

The term IC50 denotes the concentration that inhibits the measured activity by half. What is called CC50 is the concentration that lowers cell viability or growth by half. Higher therefore signals lower toxicity to the cells. For orientation: EC50 means the concentration giving half of the maximal effect.

Data set [1] has as its system HIV-1 IIIB. Description: Anti-HIV-1 activity in MT-4 cell culture (P24 antigen). The class given is cell-based.
Data set [2] can be described thus: Cytotoxicity in MT-4 cells, MTT method. The note with it: human. (Tetrazolium dyes change colour on reduction, which living cells bring about.)
The nature of data set [3]: Solubility of the drugs to be tested. The class given is physicochemical. The protocol: During the test, the solution was dissolved by DMSO to suitable concentration, diluted by culture medium, and immediately added into cell culture.
Data set [4] relates to HCV. Description: Anti-HCV activity, HCV-RNA by automatic PCR ELISA. It is filed as cell-based. The procedure:
The HCV replication cells (Avva.5) were cultivated in the Dulbecco's improved Eagle medium containing 10% fetal calf serum and 1 mg/ml G418. 293-Sip-L cells were cultivated in the Dulbecco's improved Eagle medium containing 10% fetal calf serum, 250 μg/ml G418 and 150 μg/ml hygromycin B.
Using Petri culture dish in a diameter of 60 mm, the cells were cultivated in a positive culture medium containing 100 μl of HCV for 12 hours. Then, the cells were cultivated in the fresh medium containing on HCV and the medium was replaced once everyday. When detecting HCV-RNA 7 days after the cells have been infected with HCV, it is necessary to clean the cells using the Dulbecco's improved Eagle medium in trypsinization and centrifugation methods. The upper layer part cleaned for the second time (used for comparison) and the washed cells were collected for RNA extraction and RT-PCR detection. β-actin mRNA was simultaneously determined for the purpose of comparison.
The quantitative determination on HCV-RNA is performed in automatic PCR Enzyme-linked immunosorbent assay (ELISA). (Edition 2.0, Roche Diagnostics, Branchburg, N.J.)
HCV-NA level was determined in automatic PCR ELISA.
In general terms: ELISA stands for enzyme-linked immunosorbent assay.

The subject of data set [5] is HBV DNA. The data set can be described thus: HBV DNA in Hep G2.2.15 cell supernatant, fluorescent quantitative PCR. Particulars: for HBV DNA copy number / Inhibition ratio (%): cell supernatant. The class given is cell-based, hepatitis B virus.
Data set [6] relates to VSVG/HIV-luc. The data set can be described thus: Pharmacological model of wild type HIV-1 replication (VSVG/HIV-luc, Cell 293). The class given is cell-based.
The subject of data set [7] is Hep G2.2.15. Description: Cytotoxicity on Hep G2.2.15 (MTT). It is filed as cell-based, human. Particulars: for Cell Survival Rate: MTT.
Setting [8] is: Human immunodeficiency virus 1, MT4, 96 h, HIV-1 IIIB in MT-4 cell culture, 4 days, read-out: IC50.
Setting [9] is: MT-4 cells infected with HIV-1 IIIB.
Setting [10] is: 0.06 μg/ml in the cell supernatant.
[11] abbreviates: 0.6 μg/ml in the cell supernatant.
The mark [12] stands for this setting: 6 μg/ml in the cell supernatant.
Where [13] appears, read: Human immunodeficiency virus 1, VSVG/HIV-luc, Cell 293, read-out: Remarks IC50.
[14] abbreviates: Human immunodeficiency virus 1, IIIB, MT4, 96 h.

As to `N#CC1(CO)OC(n2cc(F)c3c(O)ncnc32)C(F)C1O` (stereo not shown) [Compound 46], in data set [1] (setting [8]), the IC50 came out at 131 ng/mL (≈ 0.42 µM). In data set [2] (setting [9]), half-maximal cytotoxicity (CC50 at 4 days) was put at 48.5 µg/mL (≈ 155 µM). Also, the CC50 at 4 days in data set [2] (uninfected MT-4 cells) amounted to 55.4 µg/mL (≈ 177 µM). Moreover, in data set [3], the “Solubility in DMSO” value was “DMSO-soluble” and the Solubility in water result is recorded as “water-insoluble”.
Consider `C#CC1(CO)OC(n2cc(F)c3c(N)ncnc32)C(F)C1O` (stereo not shown) [Compound 52], for which the IC50 in data set [1] (setting [8]) is 133 ng/mL (≈ 0.429 µM). Moreover, half-maximal cytotoxicity in data set [2] (setting [9]) (CC50 at 4 days) was put at 41.3 µg/mL (≈ 133 µM). Besides, in data set [2] (uninfected MT-4 cells), the half-maximal cytotoxic concentration (CC50) at 4 days worked out at 38.6 µg/mL (≈ 124 µM). Also, in data set [3], the “Solubility in DMSO” value is “DMSO-soluble” and the Solubility in water entry is listed as “water-insoluble”.
`N#CC1(CO)OC(n2cnc3c(N)ncnc32)C(F)C1O` (stereo not shown) [Compound 39]: the 50% inhibitory concentration (IC50) in data set [1] (setting [8]) turned out to be 1490 ng/mL (≈ 5.06 µM). In addition, the CC50 at 4 days came to 38.3 µg/mL (≈ 130 µM) in data set [2] (setting [9]) and 36.8 µg/mL (≈ 125 µM) in data set [2] (uninfected MT-4 cells). In addition, the “Solubility in DMSO” value in data set [3] is listed as “DMSO-soluble”. Moreover, the Solubility in water entry in data set [3] is on record as “water-insoluble”.
On the same counts, the results for `CC1(CO)OC(n2cnc3c(O)ncnc32)C(F)C1O` (stereo not shown) [Compound 36] are 127 ng/mL (≈ 0.447 µM), 35.1 µg/mL (≈ 124 µM), 37.5 µg/mL (≈ 132 µM), “DMSO-soluble” and “water-insoluble”.
With `[N-]=[N+]=NC1(CO)OC(n2ccc(O)nc2=O)C(F)C1O` (stereo not shown) [Compound 17], the “Inhibition effect Test 1 (HCV-RNA level)” value was 4.9 × 10^2 in data set [4] (setting [10]), 0.92 × 10^2 in data set [4] (setting [11]) and 1.1 × 10^2 in data set [4] (setting [12]). Further, the “Inhibition effect Test 2 (HCV-RNA level)” value is 4.1 × 10^2 in data set [4] (setting [10]), 0.78 × 10^2 in data set [4] (setting [11]) and 0.81 × 10^2 in data set [4] (setting [12]). Besides, the “Inhibition effect on HCV (in words)” value in data set [4] (6 μg/ml, 0.6 μg/ml or 0.06 μg/ml) is on record as “relatively strong inhibition effect”. For the same molecule, the results for the “HBV DNA copy number” value in data set [5] (100 μg/L), in data set [5] (500 μg/L) and in data set [5] (1000 μg/L) were 19.2 *10^5, 14.3 *10^5 and 10.2 *10^5, respectively. The “Inhibition ratio (%)” value in data set [5] (100 μg/L) is 40.6%; in data set [5] (500 μg/L) it was 52.2%; in data set [5] (1000 μg/L), 67.9%.
On to `Cc1ccnc2c1NC(=O)c1cccnc1N2C1CC1` [NVP, Nevirapine, reference compound], for which the half-inhibitory concentration (IC50) in data set [1] (setting [8]) came out at 3.64 ng/mL (≈ 0.0137 µM). Moreover, the CC50 at 4 days in data set [2] (setting [9]) and in data set [2] (uninfected MT-4 cells) was over 12.5 µg/mL throughout.
For `C#CC1(CO)OC(n2ccc(N)nc2=O)C(F)C1O` (stereo not shown) [Compound 1], the 50% inhibitory concentration (IC50) in data set [1] (setting [8]) came out at 101 ng/mL (≈ 0.375 µM); in data set [6] (setting [13]), 500 nM. The CC50 at 4 days turned out to be 43.6 µg/mL (≈ 162 µM) in data set [2] (setting [9]) and 40.9 µg/mL (≈ 152 µM) in data set [2] (uninfected MT-4 cells). For the same molecule, the “Solubility in DMSO” value in data set [3] is “DMSO-soluble”. Also, in data set [3], the Solubility in water entry is on record as “water-insoluble”.
In the case of `[N-]=[N+]=NC1(CO)OC(n2ccc(N)nc2=O)C(F)C1O` (stereo not shown) [Compound 15], the IC50 in data set [1] (setting [14]) was 0.01 ng/mL (≈ 3.49e-05 µM); in data set [6] (Human immunodeficiency virus 1, read-out: Remarks IC50), 1.5 nM. Moreover, the CC50 at 4 days in data set [2] (setting [9]) and in data set [2] (uninfected MT-4 cells) was over 100 µg/mL throughout. The “Cell Survival Rate” value in data set [7] (8 μg/ml) is given as 98.7%; in data set [7] (40 μg/ml) it was 96.7%; in data set [7] (200 μg/ml) it was 85.5%; in data set [7] (1000 μg/ml) it was 82.6%. The “Toxicity (in words)” value in data set [7] (in vitro tests) is on record as “less toxicity”. Also, in data set [3], the “Solubility in DMSO” value was “DMSO-soluble”. In data set [3], the Solubility in water result was “water-insoluble”. Also, the “HBV DNA copy number” value in data set [5] (0.016 μg/L) is on record as 18.9 *10^5; in data set [5] (0.08 μg/L) it was 13.5 *10^5; in data set [5] (0.4 μg/L) it was 10.3 *10^5; in data set [5] (2 μg/L) it was 5.21 *10^5. The “Inhibition ratio (%)” value in data set [5] (0.016 μg/L) stood at 41.0%; in data set [5] (0.08 μg/L), 57.8%; in data set [5] (0.4 μg/L), 67.8%; in data set [5] (2 μg/L) it was 83.7%. In data set [5] (Hepatitis B virus, HepG2.2.15, HBV DNA in Hep G2.2.15 supernatant), the EC50 is 0.00019 µg/mL (≈ 0.000664 µM). For the same molecule, in data set [5] (after administration, in vitro), the “Effect on HBV DNA copy number (in words)” value is on record as “significantly reduce”.
For the molecule `[N-]=[N+]=NC1(CO)OC(n2cc(F)c3c(N)ncnc32)C(F)C1O` (stereo not shown) [Compound 50], the concentration for half-maximal inhibition (IC50) in data set [1] (setting [8]) is 2300 ng/mL (≈ 7.03 µM). Also, the cytotoxic concentration (CC50) at 4 days was determined as 28.3 µg/mL (≈ 86.5 µM) in data set [2] (setting [9]) and 27.9 µg/mL (≈ 85.3 µM) in data set [2] (uninfected MT-4 cells). Also, the “Solubility in DMSO” value in data set [3] is listed as “DMSO-soluble”. Further, the Solubility in water result in data set [3] is “water-insoluble”.
Turning to `C#CC1(CO)OC(n2cnc3c(F)ncnc32)C(F)C1O` (stereo not shown) [Compound 19], the IC50 in data set [1] (setting [14]) was 90 ng/mL (≈ 0.304 µM); in data set [6] (setting [13]), 1000 nM. The half-maximal cytotoxic concentration (CC50) at 4 days was 43.8 µg/mL (≈ 148 µM) in data set [2] (setting [9]) and 39.8 µg/mL (≈ 134 µM) in data set [2] (uninfected MT-4 cells). In addition, the “Solubility in DMSO” value in data set [3] is “DMSO-soluble”. The Solubility in water entry in data set [3] is reported as “water-insoluble”.
Consider `CC1(CO)OC(n2ccc(O)nc2=O)C(F)C1O` (stereo not shown) [Compound 9], for which, in data set [1] (setting [14]), the IC50 is 162 ng/mL (≈ 0.623 µM). Moreover, in data set [2] (setting [9]), the midpoint of cytotoxicity, the CC50 at 4 days, lay at 31.2 µg/mL (≈ 120 µM). The molecule further returned a CC50 at 4 days in data set [2] (uninfected MT-4 cells) of 30.1 µg/mL (≈ 115 µM). Further, in data set [3], the “Solubility in DMSO” value was “DMSO-soluble” and the Solubility in water result is reported as “water-insoluble”.
Consider `Cc1cn([C@H]2C[C@H](N=[N+]=[N-])[C@@H](CO)O2)c(=O)[nH]c1=O` [AZT, Zidovudine, reference compound], for which the IC50 in data set [1] (setting [8]) stood at 0.182 ng/mL (≈ 0.000681 µM). Moreover, the CC50 at 4 days in data set [2] (setting [9]) and in data set [2] (uninfected MT-4 cells) was over 0.625 µg/mL in each case.
